Blank lines part the entries; values can stand above or below the compound they belong to.
How the values were obtained:
[1] = target: T1, Xanthine oxidase (from bovine milk) (Bos taurus, UniProt P80457); assay: XO assay with 6-MP substrate (6-thiouric acid formation, HPLC); type: biochemical; details: for Effect on 6-TU formation at 20 μM: 20 μM test compound; for Effect on 6-TU formation at 3 μM: 3 μM test compound; for IC50 (6-MP)/IC50 (Xanthine): ratio of IC50 values, both substrates 5 μM; for Effect on 6-TU formation at 0.25 μM: 0.25 μM test compound
T1 construct: Xanthine oxidase (from bovine milk); purchased Sigma-Aldrich; host or cells: bovine milk (natural source)
Procedure: The incubations were carried out in 0.05 M sodium phosphate buffer (pH 7.5; final volume of incubates: 500 μL). The reaction started with the addition of the enzyme, and was stopped with 30 μL of 6 M HClO4 20, 40, or 60 min later. Thereafter, the samples were vortexed and centrifuged at 14,000× g for 5 min at room temperature. A 300-μL aliquot of the supernatant was carefully removed, after which 36 μL of 1 M KOH was added to these aliquots. Samples were cooled to 4 °C to enhance the precipitation of the formed KClO4, and centrifuged at 14,000× g for 5 min at 4 °C. The supernatants were carefully removed and the substrate together with metabolites were analyzed by HPLC (see details in Section 4.5). 6-MP is oxidized to 6-TX followed by 6-TU in the two-step reaction.
Quantitation of 6-MP, 6-TX, and 6-TU was performed by the previously described method with minor modifications.

XO = details: cited from earlier work
[2] = target: T1, Xanthine oxidase (from bovine milk); assay: XO assay with xanthine substrate (uric acid formation, HPLC); type: biochemical; details: for Effect on urate formation at 10 μM: 10 μM flavonoid, 15 min preincubation, 8 min; for Effect on uric acid formation at 20 μM: 20 μM test compound (four-fold vs. substrate)
Procedure: Xanthine (5 μM) was incubated with 0.0012 U/mL XO in the absence or presence of inhibitors (0–20 μM). Incubations were started with the addition of the enzyme (final volume of incubates: 500 μL), and stopped after 4, 8, and 12 min with 30 μL of 6 M HClO4. Thereafter, the samples were vortexed, after which 97 μL of 1 M KOH was added, then samples were cooled to 4 °C and centrifuged. Other experimental conditions were the same as described in Section 4.2. Xanthine and uric acid were quantified by HPLC (see details in Section 4.5).
(§1) Quantification of xanthine, hypoxanthine, and uric acid was performed by the previously described method with minor modifications.

[3] = cited from earlier work; for Therapeutic peak plasma concentrations: single 200 mg oral dose of APU
[4] = cited from earlier work
[5] = cited from earlier work; remark: listed apart in the source
[6] = cited from earlier work; remark: listed apart in the source
[7] = target: T1, Xanthine oxidase (from bovine milk); assay: XO assay with hypoxanthine substrate (xanthine + uric acid formation, HPLC); type: biochemical
Procedure: The experiments were started with the addition of the enzyme and stopped after 4 min with 30 μL of 6 M HClO4. Other experimental conditions were the same as described in Section 4.3. XO-catalyzed oxidation of hypoxanthine results in the formation of xanthine and uric acid in two consecutive steps.
as §1

[8] = 5 μM 6-MP, 40 min incubation, 6-TU formation, read-out: 6-MP Oxidation IC50
[9] = 5 μM xanthine, 8 min incubation, uric acid formation, read-out: Xanthine Oxidation IC50

T1 sequence (P80457 whole entry): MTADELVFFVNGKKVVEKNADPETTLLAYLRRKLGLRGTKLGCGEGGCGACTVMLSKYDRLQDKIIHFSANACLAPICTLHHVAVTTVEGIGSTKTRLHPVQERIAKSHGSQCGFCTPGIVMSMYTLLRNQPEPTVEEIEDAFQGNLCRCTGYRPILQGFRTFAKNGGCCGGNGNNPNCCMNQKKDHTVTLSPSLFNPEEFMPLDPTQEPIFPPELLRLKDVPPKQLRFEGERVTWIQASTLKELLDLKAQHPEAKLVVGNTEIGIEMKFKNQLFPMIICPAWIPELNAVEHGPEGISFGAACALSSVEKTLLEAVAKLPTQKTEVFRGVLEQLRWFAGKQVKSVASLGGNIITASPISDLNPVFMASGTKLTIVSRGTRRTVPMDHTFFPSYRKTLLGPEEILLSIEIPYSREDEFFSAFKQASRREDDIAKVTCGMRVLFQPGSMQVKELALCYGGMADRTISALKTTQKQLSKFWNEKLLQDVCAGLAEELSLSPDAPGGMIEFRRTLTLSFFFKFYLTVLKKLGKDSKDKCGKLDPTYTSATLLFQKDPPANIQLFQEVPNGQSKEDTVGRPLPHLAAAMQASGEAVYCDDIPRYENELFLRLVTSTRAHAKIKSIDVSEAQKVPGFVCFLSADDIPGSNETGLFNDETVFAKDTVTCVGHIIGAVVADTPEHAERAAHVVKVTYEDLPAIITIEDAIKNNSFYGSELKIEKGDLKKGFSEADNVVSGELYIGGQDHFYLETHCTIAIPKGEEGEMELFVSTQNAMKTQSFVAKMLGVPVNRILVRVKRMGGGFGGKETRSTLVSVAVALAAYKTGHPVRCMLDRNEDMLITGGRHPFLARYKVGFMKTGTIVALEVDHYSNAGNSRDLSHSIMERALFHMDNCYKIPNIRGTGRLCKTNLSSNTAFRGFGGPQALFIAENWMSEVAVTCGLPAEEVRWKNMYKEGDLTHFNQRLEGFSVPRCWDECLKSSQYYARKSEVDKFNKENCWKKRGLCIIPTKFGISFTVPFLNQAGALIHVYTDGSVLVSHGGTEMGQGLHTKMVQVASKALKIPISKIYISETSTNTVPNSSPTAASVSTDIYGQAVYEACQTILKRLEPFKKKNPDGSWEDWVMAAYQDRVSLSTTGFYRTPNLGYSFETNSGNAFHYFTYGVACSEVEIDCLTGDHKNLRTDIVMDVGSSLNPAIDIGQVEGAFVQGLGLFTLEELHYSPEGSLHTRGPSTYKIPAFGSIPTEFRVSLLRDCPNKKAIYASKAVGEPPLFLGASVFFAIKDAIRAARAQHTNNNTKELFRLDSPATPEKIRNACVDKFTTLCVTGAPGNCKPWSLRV

Effect on 6-TU formation at 20 μM ([1]; 5 μM 6-MP): significant decreases
SMILES: COc1ccc(CC(=O)O)cc1O [3H4MPAA, 3-Hydroxy-4-methoxyphenylacetic acid]

SMILES: O=C(O)[C@H]1O[C@@H](Oc2ccc(-c3oc4cc(O)cc(O)c4c(=O)c3O)cc2O)[C@H](O)[C@@H](O)[C@@H]1O [Q-4′-glucuronide]
Inhibition of XO-catalyzed xanthine oxidation (XO): similarly strong inhibitors of xanthine oxidation as Q

Effect on 6-TU formation at 20 μM ([1]; 5 μM 6-MP): significant decreases
SMILES: O=C(O)c1ccc(O)cc1 [4HBA, 4-Hydroxybenzoic acid]

SMILES: COc1cc(-c2oc3cc(O)cc(O)c3c(=O)c2O)ccc1O [IR, Isorhamnetin]
IC50 [1]: 600 nM | Effect on 6-TU formation at 3 μM ([1]; 5 μM 6-MP): almost completely inhibited | IC50 (6-MP)/IC50 (Xanthine) [1]: 0.86 | IC50 [2]: 700 nM | Effect on urate formation at 10 μM ([2]; 5 μM xanthine): almost completely abolished

Effect on 6-TU formation at 20 μM ([1]; 5 μM 6-MP): significant decreases
SMILES: COc1ccc(C(=O)O)c(O)c1 [2H4MBA, 4-Methoxysalicylic acid]
Effect on uric acid formation at 20 μM ([2]; 5 μM xanthine): inhibited of uric acid formation significantly

Effect on 6-TU formation at 20 μM ([1]; 5 μM 6-MP): significant decreases
SMILES: O=C(O)CCc1ccc(O)cc1O [324DHPPA, 3-(2,4-Dihydroxyphenyl)propionic acid]

Effect on 6-TU formation at 20 μM ([1]; 5 μM 6-MP): significant decreases
SMILES: O=C(O)CCc1ccccc1 [3PPA, 3-Phenylpropionic acid]

SMILES: O=c1c(OS(=O)(=O)O)c(-c2ccc(O)c(O)c2)oc2cc(O)cc(O)c12 [Q-3-sulfate]
Inhibition of XO-catalyzed xanthine oxidation (XO): inhibited XO only at very high concentrations

Effect on 6-TU formation at 20 μM ([1]; 5 μM 6-MP): significant decreases
SMILES: O=C(O)Cc1ccccc1O [2HPAA, 2-Hydroxyphenylacetic acid]

SMILES: O=C(O)[C@H]1O[C@@H](Oc2cc(-c3oc4cc(O)cc(O)c4c(=O)c3O)ccc2O)[C@H](O)[C@@H](O)[C@@H]1O [Q-3′-glucuronide]
Inhibition of XO-catalyzed xanthine oxidation (XO): similarly strong inhibitors of xanthine oxidation as Q

SMILES: O=c1c(O)c(-c2ccc(O)c(O)c2)oc2cc(O)cc(O)c12 [Q, Quercetin]
Peak plasma concentrations of total Q ([3]; repeated daily oral administration of 1000 mg Q): low micromolar range | Oral bioavailability [4]: low | Effect on 6-TU formation at 0.25 μM ([1]; 5 μM 6-MP): only weak inhibitory action | Effect on 6-TU formation at 3 μM ([1]; 5 μM 6-MP): almost completely inhibited | Serum urate levels in hyperuricemic mice ([5]; 100 mg/kg, hyperuricemic mice): decreased the serum urate levels | Serum urate levels in normal or hyperuricemic mice ([5]; 400 mg/kg orally administered): failed to decrease the serum urate levels | Effect on urate formation at 10 μM ([2]; 5 μM xanthine): almost completely abolished | Serum uric acid levels, human ([6]; 1000 or 2000 mg/day): does not influence the serum uric acid levels | Serum urate, human ([6]; four-week treatment, 500 mg/day): minimal reduction in serum urate

IC50 [1, 8]: 10100 nM | Effect on 6-TU formation at 20 μM ([1]; 5 μM 6-MP): significant decreases | inhibition at 20 µM ([1]; 20 μM, 5 μM 6-MP, read-out: Inhibitory effect on 6-MP oxidation at 20 μM): > 50% | IC50 (6-MP)/IC50 (Xanthine) [1]: 5.61 | IC50 [2, 9]: 1800 nM | inhibition at 20 µM ([2]; 20 μM, 5 μM xanthine, read-out: Inhibitory effect on xanthine oxidation at 20 μM): > 50%
SMILES: Oc1cccc(O)c1O [PYR, Pyrogallol]
Effect on uric acid formation at 20 μM ([2]; 5 μM xanthine): inhibited of uric acid formation significantly

SMILES: O=c1[nH]c(=O)c2c[nH]nc2[nH]1 [Oxipurinol, oxipurinol, reference compound]
IC50 [7]: > 3000 nM | Therapeutic peak plasma concentrations [3]: 35 to 40 µM | IC50 [1, 8]: 10000 nM | IC50 [2, 9]: 4500 nM

Effect on 6-TU formation at 20 μM ([1]; 5 μM 6-MP): significant decreases
SMILES: O=C(O)CCc1cccc(O)c1 [33HPPA, 3-(3-Hydroxyphenyl)propionic acid]

SMILES: Oc1ncnc2[nH]ncc12 [APU, Allopurinol, reference compound]
Therapeutic peak plasma concentrations [3]: 35 to 40 µM | Effect on 6-TU formation at 3 μM ([1]; 5 μM 6-MP): only a slight effect

Effect on 6-TU formation at 20 μM ([1]; 5 μM 6-MP): significant decreases
SMILES: O=C(O)CNC(=O)c1ccccc1 [HIPA, Hippuric acid]

Effect on 6-TU formation at 20 μM ([1]; 5 μM 6-MP): significant decreases
SMILES: O=C(O)/C=C/c1cccc(O)c1 [3CA, 3-Coumaric acid]

Effect on 6-TU formation at 20 μM ([1]; 5 μM 6-MP): significant decreases
SMILES: O=C(O)Cc1ccc(O)cc1 [4HPAA, 4-hydroxyphenylacetic acid]

Effect on 6-TU formation at 20 μM ([1]; 5 μM 6-MP): significant decreases
SMILES: O=C(O)Cc1ccc(CO)cc1 [4HMPAA, 4-(Hydroxymethyl)phenylacetic acid]

IC50 ([7]; 5 μM hypoxanthine, 4 min incubation, xanthine + uric acid formation, read-out: Hypoxanthine oxidation IC50): 210 nM | Effect on 6-TU formation at 0.25 μM ([1]; 5 μM 6-MP): significantly decreased | Effect on 6-TU formation at 3 μM ([1]; 5 μM 6-MP): almost completely inhibited | IC50 [1, 8]: 500 nM | IC50 (6-MP)/IC50 (Xanthine) [1]: 1.25 | IC50 [2, 9]: 400 nM | Effect on urate formation at 10 μM ([2]; 5 μM xanthine): almost completely abolished
SMILES: O=c1c(O)c(-c2ccc(O)c(OS(=O)(=O)O)c2)oc2cc(O)cc(O)c12 [Q3′S, Quercetin-3′-sulfate]

Effect on 6-TU formation at 20 μM ([1]; 5 μM 6-MP): significant decreases
SMILES: CC(=O)c1ccc(O)cc1O [24DHAP, 2,4-Dihydroxyacetophenon]

SMILES: O=C(O)c1ccccc1 [BA, Benzoic acid]
Effect on 6-TU formation at 20 μM ([1]; 5 μM 6-MP): significant decreases

Effect on 6-TU formation at 20 μM ([1]; 5 μM 6-MP): significant decreases
SMILES: O=C(O)CCc1ccc(O)cc1 [34HPPA, 3-(4-Hydroxyphenyl)propionic acid]

SMILES: O=C(O)[C@H]1O[C@@H](Oc2cc(O)c3c(=O)c(O)c(-c4ccc(O)c(O)c4)oc3c2)[C@H](O)[C@@H](O)[C@@H]1O [Q-7-glucuronide]
Inhibition of XO-catalyzed xanthine oxidation (XO): only weak inhibitors

Effect on 6-TU formation at 20 μM ([1]; 5 μM 6-MP): significant decreases
SMILES: O=C(O)c1ccc(O)cc1O [24DHBA, 2,4-Dihydroxybenzoic acid]

Effect on 6-TU formation at 0.25 μM ([1]; 5 μM 6-MP): significantly decreased | Effect on 6-TU formation at 3 μM ([1]; 5 μM 6-MP): almost completely inhibited | IC50 [1, 8]: 200 nM | IC50 (6-MP)/IC50 (Xanthine) [1]: 1.00 | IC50 [2, 9]: 200 nM | Effect on urate formation at 10 μM ([2]; 5 μM xanthine): almost completely abolished
SMILES: COc1ccc(-c2oc3cc(O)cc(O)c3c(=O)c2O)cc1O [TAM, Tamarixetin]

IC50 [1, 8]: > 20000 nM | Effect on 6-TU formation at 20 μM ([1]; 5 μM 6-MP): did not inhibit | IC50 [2, 9]: > 20000 nM | Effect on uric acid formation at 20 μM ([2]; 5 μM xanthine): did not inhibit
SMILES: O=C(O)C1OC(Oc2c(-c3ccc(O)c(O)c3)oc3cc(O)cc(O)c3c2=O)C(O)C(O)C1O (stereo not drawn) [Q3G, Quercetin-3-glucuronide]
Inhibition of XO-catalyzed xanthine oxidation (XO): only weak inhibitors

IC50 [1, 8]: > 20000 nM | Effect on 6-TU formation at 20 μM ([1]; 5 μM 6-MP): did not inhibit | IC50 [2, 9]: > 20000 nM | Effect on uric acid formation at 20 μM ([2]; 5 μM xanthine): did not inhibit
SMILES: COc1cc(-c2oc3cc(O)cc(O)c3c(=O)c2OC2OC(C(=O)O)C(O)C(O)C2O)ccc1O (stereo not drawn) [I3G, Isorhamnetin-3-glucuronide]

Source: paper PMC6600370 (International Journal of Molecular Sciences, 2019)
